Experimental data reported in PMC12430443, “Discovery of Novel Benzamide-Based Sigma-1 Receptor Agonists with Enhanced Selectivity and Safety” (Molecules, 2025).

What was measured:
P-gp = P-gp (Homo sapiens, UniProt P08183); assay: Transporter inhibition in overexpressing cell lines; type: in vitro ADME; conditions: ABC family, n = 2, read-out: Drug transport inhibition P-gp
Protocol: (§1) Microsomal stability was evaluated using human liver microsomes at 10 µM (Table 3). […] Since cytochrome P450 (CYP) enzymes—especially families 1 to 3—play major roles in drug metabolism, CYP inhibition was tested against the human isoforms CYP1A, 2B6, 2C8, 2C9, 2C19, 2D6, and 3A, as recommended by FDA and EMA guidelines. […] Membrane transport proteins, including the ATP-binding cassette (ABC) and solute carrier (SLC) families, affect drug pharmacokinetics and potential drug–drug interactions. The inhibitory effects of compounds 2 and 6 were assessed against five ABC transporters (P-gp, BCRP, MRP1, MRP2, and MRP3) and seven SLC transporters (OAT1, OAT3, OATP1B1, OCT1, OCT2, ASBT, and NTCP).
(§2) Standardized in vitro ADME experiments were performed by Eurofins Cerep (Poitiers, France). Solubility assays were performed in PBS at pH 7.4, but also in simulated gastric fluid (SGF) and intestinal fluid (SIF), through the classical shake-flask method described by Lipinski et al., using HPLC-UV/VIS technology. The results were expressed in µM. The compound was classically evaluated at 10 µM for all of the ADME analyses. Bidirectional permeability (apical A to basolateral B pH 6.5/7.4, and basolateral B to apical A pH 7.4/6.5) was assessed in the epithelial colorectal adenocarcinoma cell line (Caco-2 cell line). The results were expressed as ×10^−6 cm/s (Papp) and as % recovery. The efflux ratio, i.e., Papp (B→A)/Papp(A→B), was calculated. Plasma protein binding was analyzed by HPLC-MS/MS after 4 h of incubation at 37 °C, as described by Banker et al.. Concentration was evaluated by LC/MS-MS. CYP inhibition was performed in human liver microsomes as described in [28]. Analysis of the respective metabolites was performed by HPLC-MS/MS. Transporter inhibition analysis was also performed in overexpressing cell lines. Respective metabolites for each specific transporter substrate were analyzed by fluorometry or scintillation counting, and % inhibition of control values were calculated. P-glycoprotein transporter substrate assessment was performed by bidirectional permeability analysis (apical A to basolateral B pH 7.4/7.4, and basolateral B to apical A pH 7.4/7.4) in the Caco-2 cell line with and without verapamil, as described in [26]. The results were expressed as ×10^−6 cm/s (Papp) and as % recovery. The efflux ratio was calculated as Papp(B→A)/Papp(A→B). CYP450 induction was assessed in human hepatocytes by measuring the mRNA levels of seven CYP isoforms via qPCR, as described in [40]. The compound was tested at 1, 10, and 100 μM, and fold-induction values were compared with predefined cut-off thresholds for each isoform and hepatocyte lot.

NTCP = NTCP (Homo sapiens, UniProt Q14973); assay: as above; type: in vitro ADME; conditions: SLC family, n = 2, read-out: Drug transport inhibition NTCP
Protocol: as §1, §2

OAT3 = OAT3 (Homo sapiens, UniProt Q8TCC7); assay: as above; type: in vitro ADME; conditions: SLC family, n = 2, read-out: Drug transport inhibition OAT3
Protocol: as §1, §2

MRP2 = MRP2 (Homo sapiens, UniProt Q92887); assay: as above; type: in vitro ADME; conditions: ABC family, n = 2, read-out: Drug transport inhibition MRP2
Protocol: as §1, §2

OCT2 = OCT2 (Homo sapiens, UniProt O15244); assay: as above; type: in vitro ADME; conditions: SLC family, n = 2, read-out: Drug transport inhibition OCT2
Protocol: as §1, §2

ABST = ABST (Homo sapiens, UniProt Q12908); assay: as above; type: in vitro ADME; conditions: SLC family, n = 2, read-out: Drug transport inhibition ABST
Protocol: as §1, §2

OAT1 = OAT1 (Homo sapiens, UniProt Q4U2R8); assay: as above; type: in vitro ADME; conditions: SLC family, n = 2, read-out: Drug transport inhibition OAT1
Sequence of OAT1 (Q4U2R8 whole entry): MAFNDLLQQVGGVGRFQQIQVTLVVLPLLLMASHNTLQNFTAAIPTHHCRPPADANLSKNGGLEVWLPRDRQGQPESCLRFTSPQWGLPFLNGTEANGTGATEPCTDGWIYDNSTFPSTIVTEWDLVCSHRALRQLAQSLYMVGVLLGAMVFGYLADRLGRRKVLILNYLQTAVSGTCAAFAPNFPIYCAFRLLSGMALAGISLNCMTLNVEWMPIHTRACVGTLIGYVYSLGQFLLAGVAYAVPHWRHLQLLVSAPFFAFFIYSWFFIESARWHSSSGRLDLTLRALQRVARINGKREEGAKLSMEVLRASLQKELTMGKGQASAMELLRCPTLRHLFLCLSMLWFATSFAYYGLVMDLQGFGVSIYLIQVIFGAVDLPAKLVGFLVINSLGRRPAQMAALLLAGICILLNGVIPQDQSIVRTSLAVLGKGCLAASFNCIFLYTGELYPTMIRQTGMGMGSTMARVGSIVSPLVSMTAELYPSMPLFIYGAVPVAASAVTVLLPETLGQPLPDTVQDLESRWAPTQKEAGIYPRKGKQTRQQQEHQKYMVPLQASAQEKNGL
Protocol: as §1, §2

MRP1 = MRP1 (Homo sapiens, UniProt P33527); assay: as above; type: in vitro ADME; conditions: ABC family, n = 2, read-out: Drug transport inhibition MRP1
Sequence of MRP1 (P33527 whole entry): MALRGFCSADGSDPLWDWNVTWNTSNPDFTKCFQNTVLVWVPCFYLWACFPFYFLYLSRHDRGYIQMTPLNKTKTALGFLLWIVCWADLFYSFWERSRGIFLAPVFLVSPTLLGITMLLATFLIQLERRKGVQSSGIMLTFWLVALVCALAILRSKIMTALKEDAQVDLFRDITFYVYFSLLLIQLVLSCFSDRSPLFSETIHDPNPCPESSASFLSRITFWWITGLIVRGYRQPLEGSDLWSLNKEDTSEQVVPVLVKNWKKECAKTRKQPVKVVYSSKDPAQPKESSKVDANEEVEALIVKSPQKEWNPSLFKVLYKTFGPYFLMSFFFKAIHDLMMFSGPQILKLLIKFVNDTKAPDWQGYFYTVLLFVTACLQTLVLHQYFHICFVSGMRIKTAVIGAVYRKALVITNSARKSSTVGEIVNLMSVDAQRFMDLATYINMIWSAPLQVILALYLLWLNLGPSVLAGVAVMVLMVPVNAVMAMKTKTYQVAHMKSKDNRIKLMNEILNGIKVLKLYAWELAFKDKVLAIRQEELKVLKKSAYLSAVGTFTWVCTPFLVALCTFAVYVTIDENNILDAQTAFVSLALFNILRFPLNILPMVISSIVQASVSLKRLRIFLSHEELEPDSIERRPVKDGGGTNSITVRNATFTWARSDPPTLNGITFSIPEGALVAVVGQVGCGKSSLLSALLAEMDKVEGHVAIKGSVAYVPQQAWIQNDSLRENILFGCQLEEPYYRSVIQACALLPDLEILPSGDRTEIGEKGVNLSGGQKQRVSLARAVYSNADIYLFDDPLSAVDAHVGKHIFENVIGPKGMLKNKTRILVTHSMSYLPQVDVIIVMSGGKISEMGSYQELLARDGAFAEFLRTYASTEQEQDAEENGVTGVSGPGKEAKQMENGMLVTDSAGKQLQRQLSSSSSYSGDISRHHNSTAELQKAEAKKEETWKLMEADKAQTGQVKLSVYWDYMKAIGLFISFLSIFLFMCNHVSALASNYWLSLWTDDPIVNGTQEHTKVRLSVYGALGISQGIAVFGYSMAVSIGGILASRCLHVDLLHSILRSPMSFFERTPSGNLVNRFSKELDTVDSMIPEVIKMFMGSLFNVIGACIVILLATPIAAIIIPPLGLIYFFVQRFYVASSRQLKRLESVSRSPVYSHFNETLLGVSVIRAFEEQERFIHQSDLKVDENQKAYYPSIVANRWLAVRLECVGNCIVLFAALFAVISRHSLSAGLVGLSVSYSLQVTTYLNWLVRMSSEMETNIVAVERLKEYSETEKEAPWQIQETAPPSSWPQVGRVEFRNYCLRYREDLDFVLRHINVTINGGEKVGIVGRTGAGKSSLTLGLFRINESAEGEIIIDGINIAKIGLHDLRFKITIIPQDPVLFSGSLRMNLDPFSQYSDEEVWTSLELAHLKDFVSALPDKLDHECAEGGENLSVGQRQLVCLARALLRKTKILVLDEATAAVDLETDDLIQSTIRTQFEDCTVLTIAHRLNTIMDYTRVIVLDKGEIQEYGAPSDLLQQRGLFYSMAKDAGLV
Protocol: as §1, §2

OATP1B1 = OATP1B1 (Homo sapiens, UniProt Q9Y6L6); assay: as above; type: in vitro ADME; conditions: SLC family, n = 2, read-out: Drug transport inhibition OATP1B1
Protocol: as §1, §2

OCT1 = OCT1 (Homo sapiens, UniProt O15245); assay: as above; type: in vitro ADME; conditions: SLC family, n = 2, read-out: Drug transport inhibition OCT1
Protocol: as §1, §2

MRP3 = MRP3 (Homo sapiens, UniProt O15438); assay: as above; type: in vitro ADME; conditions: ABC family, n = 2, read-out: Drug transport inhibition MRP3
Sequence of MRP3 (O15438 whole entry): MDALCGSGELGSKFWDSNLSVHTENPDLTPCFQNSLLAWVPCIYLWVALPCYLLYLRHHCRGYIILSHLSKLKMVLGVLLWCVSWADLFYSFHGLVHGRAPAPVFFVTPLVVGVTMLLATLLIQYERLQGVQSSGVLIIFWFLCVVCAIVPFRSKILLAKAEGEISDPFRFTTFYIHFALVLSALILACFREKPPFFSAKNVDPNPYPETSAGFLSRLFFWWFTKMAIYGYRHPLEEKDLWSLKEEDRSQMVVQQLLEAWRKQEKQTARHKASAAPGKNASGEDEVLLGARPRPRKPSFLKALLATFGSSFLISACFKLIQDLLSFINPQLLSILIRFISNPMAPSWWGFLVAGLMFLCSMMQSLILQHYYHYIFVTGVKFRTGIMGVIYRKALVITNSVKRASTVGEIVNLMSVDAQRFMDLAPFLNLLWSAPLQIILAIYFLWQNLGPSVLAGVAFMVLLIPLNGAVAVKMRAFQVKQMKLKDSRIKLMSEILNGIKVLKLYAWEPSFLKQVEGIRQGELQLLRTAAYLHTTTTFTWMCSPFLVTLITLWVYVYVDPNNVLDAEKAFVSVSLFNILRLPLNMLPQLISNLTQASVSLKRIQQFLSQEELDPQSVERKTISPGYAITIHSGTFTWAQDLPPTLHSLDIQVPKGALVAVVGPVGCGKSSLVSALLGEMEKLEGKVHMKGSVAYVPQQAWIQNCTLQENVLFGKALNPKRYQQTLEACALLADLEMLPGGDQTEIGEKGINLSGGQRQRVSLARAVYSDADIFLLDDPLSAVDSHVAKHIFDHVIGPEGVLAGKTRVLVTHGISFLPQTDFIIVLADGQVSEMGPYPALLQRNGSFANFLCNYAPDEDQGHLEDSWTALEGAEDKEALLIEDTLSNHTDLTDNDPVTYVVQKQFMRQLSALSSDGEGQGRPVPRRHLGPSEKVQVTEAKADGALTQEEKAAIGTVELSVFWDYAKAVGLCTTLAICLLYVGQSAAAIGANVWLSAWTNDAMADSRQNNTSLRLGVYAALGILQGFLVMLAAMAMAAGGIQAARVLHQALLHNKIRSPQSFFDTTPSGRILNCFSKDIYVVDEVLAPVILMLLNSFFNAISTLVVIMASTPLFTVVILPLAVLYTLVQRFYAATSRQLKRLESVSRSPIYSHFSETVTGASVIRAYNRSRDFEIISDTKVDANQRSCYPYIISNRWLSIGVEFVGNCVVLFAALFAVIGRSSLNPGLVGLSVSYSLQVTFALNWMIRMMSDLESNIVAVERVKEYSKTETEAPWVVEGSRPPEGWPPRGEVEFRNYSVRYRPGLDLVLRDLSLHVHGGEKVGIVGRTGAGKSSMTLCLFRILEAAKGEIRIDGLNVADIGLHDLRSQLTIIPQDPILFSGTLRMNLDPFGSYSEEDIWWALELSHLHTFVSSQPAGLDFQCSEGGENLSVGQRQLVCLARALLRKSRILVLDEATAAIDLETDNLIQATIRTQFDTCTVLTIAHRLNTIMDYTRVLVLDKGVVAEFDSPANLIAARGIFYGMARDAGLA
Protocol: as §1, §2

BCRP = BCRP (Homo sapiens, UniProt Q9UNQ0); assay: as above; type: in vitro ADME; conditions: ABC family, n = 2, read-out: Drug transport inhibition BCRP
Protocol: as §1, §2

CYP2D6 = target: T1, CYP2D6 (Homo sapiens, UniProt P10635); assay: CYP inhibition in human liver microsomes; type: in vitro ADME; conditions: n = 2, read-out: CYP inhibition 2D6
T1 construct: tissue Eurofins Cerep (assay provider); host or cells: human liver microsomes
Protocol: as §1, §2

[1] = tested on: SH-SY5Y neuroblastoma cells; assay: Cytotoxicity, MTT/MTS assay; type: cell-based, human; conditions: selectivity index; IC50 was considered > 100 µM
Protocol: (§3) To assess potential cytotoxicity in CNS-relevant cells, human neuroblastoma (SH-SY5Y) cells were exposed to compounds 2–7 at concentrations up to 100 μM. Cell viability was measured using the MTT assay.
(§4) Cytotoxicity was assessed in human SH-SY5Y neuroblastoma cells cultured in Dulbecco’s Modified Eagle Medium (DMEM, Gibco, Thermo Fisher Scientific Inc., Waltham, MA, USA) supplemented with 2 mM L-glutamine, 100 μg/mL streptomycin, 100 IU/mL penicillin, 1 mM non-essential amino acids (all from Invitrogen, Thermo Fisher Scientific Inc., Waltham, MA, USA), and 10% (v/v) heat-inactivated fetal bovine serum (Sigma-Aldrich, Burlington, MA, USA). Cells were maintained at 37 °C in a humidified 5% CO2 atmosphere and serum-starved for 24 h to synchronize cultures before treatment with the test compounds at final concentrations of 100, 50, 10, 5, 1, 0.5, 0.1, or 0.05 μM (all in <0.1% DMSO). […] Absorbance was measured at 490 nm, and the results were expressed as a percentage relative to untreated control cells (set at 100%).

[2] = Cytotoxicity, MTT/MTS assay; type: cell-based, human; conditions: human, SH-SY5Y neuroblastoma cells; percentage of cell death after 24 h treatment at 100 µM (duplicate); read-out: SY5Y % Cytotox
Protocol: as §3, §4

Sequence of P-gp (P08183 whole entry, canonical isoform): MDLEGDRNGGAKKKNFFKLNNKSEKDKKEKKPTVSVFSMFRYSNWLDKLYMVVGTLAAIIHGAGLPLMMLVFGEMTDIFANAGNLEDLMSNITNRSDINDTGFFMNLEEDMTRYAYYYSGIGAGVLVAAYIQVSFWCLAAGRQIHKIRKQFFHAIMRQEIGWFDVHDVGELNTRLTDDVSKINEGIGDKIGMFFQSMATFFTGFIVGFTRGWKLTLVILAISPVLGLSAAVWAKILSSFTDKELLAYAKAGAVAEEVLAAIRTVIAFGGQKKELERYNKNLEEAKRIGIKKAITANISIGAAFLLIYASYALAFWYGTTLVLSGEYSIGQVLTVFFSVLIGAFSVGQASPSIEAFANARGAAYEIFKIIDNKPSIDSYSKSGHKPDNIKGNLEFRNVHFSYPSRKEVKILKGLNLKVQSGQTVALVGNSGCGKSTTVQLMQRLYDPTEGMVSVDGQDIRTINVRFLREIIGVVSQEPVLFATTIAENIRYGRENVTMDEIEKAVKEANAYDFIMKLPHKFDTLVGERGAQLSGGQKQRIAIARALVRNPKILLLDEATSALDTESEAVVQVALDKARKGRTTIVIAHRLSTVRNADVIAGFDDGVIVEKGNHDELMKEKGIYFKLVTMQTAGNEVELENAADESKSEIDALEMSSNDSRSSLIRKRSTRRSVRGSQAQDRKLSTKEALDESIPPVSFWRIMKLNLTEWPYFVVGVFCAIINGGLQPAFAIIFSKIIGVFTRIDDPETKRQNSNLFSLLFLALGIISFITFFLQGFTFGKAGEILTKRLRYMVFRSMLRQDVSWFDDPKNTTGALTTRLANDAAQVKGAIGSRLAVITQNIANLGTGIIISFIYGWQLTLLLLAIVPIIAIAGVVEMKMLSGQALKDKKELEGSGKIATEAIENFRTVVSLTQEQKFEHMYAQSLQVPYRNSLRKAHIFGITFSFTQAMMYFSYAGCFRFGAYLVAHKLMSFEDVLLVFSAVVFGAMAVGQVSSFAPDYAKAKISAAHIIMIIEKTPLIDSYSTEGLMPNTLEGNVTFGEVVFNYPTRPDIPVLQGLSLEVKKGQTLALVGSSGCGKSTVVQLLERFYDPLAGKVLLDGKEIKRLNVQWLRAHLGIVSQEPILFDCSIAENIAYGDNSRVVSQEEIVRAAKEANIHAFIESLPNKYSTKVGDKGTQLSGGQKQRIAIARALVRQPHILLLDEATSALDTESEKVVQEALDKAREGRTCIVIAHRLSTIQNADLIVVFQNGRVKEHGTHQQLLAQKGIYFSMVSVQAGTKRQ

| SMILES | inhibition at 10 µM (P-gp) | inhibition at 10 µM (NTCP) | inhibition at 10 µM (OAT3) | inhibition at 10 µM (MRP2) | inhibition at 10 µM (OCT2) | inhibition at 10 µM (ABST) | inhibition at 10 µM (OAT1) | inhibition at 10 µM (MRP1) | inhibition at 10 µM (OATP1B1) | inhibition at 10 µM (OCT1) | inhibition at 10 µM (MRP3) | inhibition at 10 µM (BCRP) | inhibition at 10 µM (CYP2D6) | IC50 (SY5Y)/ Ki (S1R) [1] | cytotoxicity at 24 h, 100 µM [2] |
| --- | --- | --- | --- | --- | --- | --- | --- | --- | --- | --- | --- | --- | --- | --- | --- |
| CN(CCC(=O)NCc1cccc(Cl)c1)Cc1ccccc1 [Compound 2, 3-(Benzylmethylamino)-N-(3-chlorobenzyl)propanamide] | 4.7% | 8.7% | 33.3% | 5.6% | 54.1% | 21.8% | -23.1% | -0.3% | 3.9% | 19.9% | 0.7% | -9% | 80.5% | >166,666 | 12% |
| CN(CCC(=O)NCc1ccc(C#N)cc1)Cc1ccccc1 [Compound 6, 3-(Benzylmethylamino)-N-(4-cyanobenzyl)propanamide] | 4.7% | -12.5% | 27.8% | 3.3% | 59.3% | -8.9% | -25.8% | -1.1% | 1.3% | 2.4% | 0.4% | -5.8% | 87.7% | >17,857 | 8% |
